The target of one assay is T1, MAT2A homodimer (Homo sapiens, UniProt P31153).
T1 construct: inferred from Ni sepharose purification and imidazole elution; made in house; host or cells: Sf9 insect cells, recombinant baculovirus (Bac to Bac, pFASTBAC1)
The assay is described as follows: Biochemical assay: inhibition of MAT2A (phosphate release, PiColorLock Gold). As to conditions: MAT2A IC50 score; read-out: Enzyme Inhibition (Example 275). The method in brief:
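Phosphate formed alongside SAM was read with PiColorLock Gold and quantified against a potassium phosphate standard curve. Reactions ran 60 min at 25 °C after adding a substrate mix of 500 μM ATP and 400 μM L-methionine (mix concentrations). Compound had first been preincubated 60 min with recombinant Sf9-derived MAT2A homodimer ([…]) in pH 8.0 Tris buffer containing MgCl2, KCl, EDTA and BSA.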

In the next assay the test system is HCT116 MTAP+/+. Description: Inhibition of cellular proliferation (Cell Titer Glo), HCT116 MTAP+/+. The assay is classed as cell-based, human. The note with it: Homo sapiens, HCT-116, 96 h, 4 days, IC50 score, read-out: 4 Day Relative Growth Inhibition (MTAP +/+; Example 277). The procedure, abridged:
(§1)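 Proliferation was read as ATP luminescence (Cell Titer Glo) after a 4-day, 37 °C exposure of HCT116 cells differing only in MTAP deletion status. Dosing was 10 points, 3-fold steps, added 24 h post-plating; signal minus blank, relative to 0.2% DMSO control wells, was plotted against log molar concentration.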
In general terms: Cellular ATP, detected with luciferase, serves as a proxy for viable cell number.

The next assay relates to HCT116 MTAP−/−. The assay is described as follows: Inhibition of cellular proliferation (Cell Titer Glo), HCT116 MTAP−/−. The assay is classed as cell-based, human. The note with it: Homo sapiens, HCT-116, 96 h, 4 days, IC50 score, read-out: 4 Day Relative Growth Inhibition (MTAP −/−; Example 277). The procedure, abridged: as §1
Assay [1] deals with SAM in HCT116 human colon carcinoma cell line engineered to delete the MTAP gene (MTAP −/−). The assay is described as follows: Cellular assay of target engagement (SAM) by LC-MS/MS. The assay is classed as cell-based. As to conditions: Homo sapiens, HCT-116, 72 h, IC50 score, read-out: Cell 72 h SAM Inhibition (MTAP −/−; Example 276). The method in brief: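 Intracellular SAM, the MAT2A product, was measured by quantitative LC-MS/MS against a d3-SAM standard in methanol/acetic acid extracts. Extracts came from HCT116 MTAP −/− cells exposed for 72 h at 37 °C to a ten-point, threefold dilution series of compound, added one day after seeding.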

A value given as a limit tells only on which side of the number the result lay.

T1 sequence (P31153 whole entry): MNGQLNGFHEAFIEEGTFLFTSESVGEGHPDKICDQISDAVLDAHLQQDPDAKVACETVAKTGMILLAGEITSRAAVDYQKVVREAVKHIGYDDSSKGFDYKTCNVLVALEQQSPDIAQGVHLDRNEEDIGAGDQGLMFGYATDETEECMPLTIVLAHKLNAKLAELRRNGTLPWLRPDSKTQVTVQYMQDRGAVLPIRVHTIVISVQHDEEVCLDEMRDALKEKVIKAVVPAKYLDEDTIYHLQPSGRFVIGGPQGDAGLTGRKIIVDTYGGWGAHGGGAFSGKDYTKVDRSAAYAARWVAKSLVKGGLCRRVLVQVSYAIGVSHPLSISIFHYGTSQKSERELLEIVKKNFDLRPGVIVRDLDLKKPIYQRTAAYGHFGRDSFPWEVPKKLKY

Turning to `O=c1c(-c2ccc(OC(F)F)cc2)c2nc(NCC(F)(F)F)ncc2cn1-c1ccc2ncsc2c1` [Example 156, 6-(benzo[d]thiazol-6-yl)-8-(4-(difluoromethoxy)phenyl)-2-((2,2,2-trifluoroethyl)amino)pyrido[4,3-d]pyrimidin-7(6H)-one], the IC50 on MAT2A homodimer was less than 100 nM; in the assay with HCT116 MTAP+/+ it was greater than 10000 nM; in the assay with HCT116 MTAP−/−, less than 100 nM; in assay [1] it was less than 100 nM.
As for `Cc1nc2ccc(-n3cc4cnc(NCC(F)(F)F)nc4c(-c4ccc(OC(F)F)cc4)c3=O)cc2s1` [Example 150, 8-(4-(difluoromethoxy)phenyl)-6-(2-methylbenzo[d]thiazol-6-yl)-2-((2,2,2-trifluoroethyl)amino)pyrido[4,3-d]pyrimidin-7(6H)-one], the IC50 on MAT2A homodimer was less than 100 nM; with HCT116 MTAP+/+, 100 to 10000 nM; with HCT116 MTAP−/− it was 100 to 10000 nM; in assay [1], less than 100 nM.
In the case of `CCOc1ccc2cn(-c3ccc(OC)cc3)c(=O)c(-c3ccc(C)nc3)c2n1` [Example 114-A], the IC50 is less than 100 nM on MAT2A homodimer, 100 to 10000 nM with HCT116 MTAP+/+, less than 100 nM with HCT116 MTAP−/− and less than 100 nM in assay [1].
As to `CCOc1ccc2cn(-c3ccc4ncn(C)c4c3)c(=O)c(-c3ccc(Cl)cc3)c2n1` [Example 248, 8-(4-chlorophenyl)-2-ethoxy-6-(1-methyl-1H-benzo[d]imidazol-6-yl)-1,6-naphthyridin-7(6H)-one], the IC50 is less than 100 nM at MAT2A homodimer, 100 to 10000 nM with HCT116 MTAP+/+, less than 100 nM in the assay with HCT116 MTAP−/− and less than 100 nM in assay [1].
On to `CC(C)Nc1ncc2cn(-c3ccc4ncccc4c3)c(=O)c(-c3ccc(OC(F)F)cc3)c2n1` [Example 182, 8-(4-(difluoromethoxy)phenyl)-2-(isopropylamino)-6-(quinolin-6-yl)pyrido[4,3-d]pyrimidin-7(6)-one], for which the IC50 was less than 100 nM at MAT2A homodimer, greater than 10000 nM with HCT116 MTAP+/+, 100 to 10000 nM with HCT116 MTAP−/− and less than 100 nM in assay [1].
For the molecule `CCOc1ncc2cn(-c3ccc4nn(C)cc4c3)c(=O)c(-c3ccc(Cl)cc3)c2n1` [Example 270, 8-(4-chlorophenyl)-2-ethoxy-6-(2-methyl-2H-indazol-5-yl)pyrido[4,3-d]pyrimidin-7(6H)-one], the IC50 on MAT2A homodimer was less than 100 nM; in the assay on HCT116 MTAP+/+, greater than 10000 nM; with HCT116 MTAP−/−, less than 100 nM; in assay [1], less than 100 nM.
Regarding `CCOc1ccc2cn(-c3ccc4ncn(C)c4c3)c(=O)c(-c3ccc(NC)nc3)c2n1` [Example 111-A], the IC50 at MAT2A homodimer is less than 100 nM; in the assay with HCT116 MTAP+/+, 100 to 10000 nM; in the assay with HCT116 MTAP−/−, less than 100 nM; in assay [1], less than 100 nM.
Consider `O=c1c(-c2ccc(-c3cc[nH]n3)cc2)c2nc(NCC(F)(F)F)ncc2cn1-c1ccc2ncccc2c1` [Example 203, 8-(4-(H-pyrazol-3-yl)phenyl)-6-(quinolin-6-yl)-2-((2,2,2-trifluoroethyl)amino)pyrido[4,3-d]pyrimidin-7(6H)-one], for which the IC50 on MAT2A homodimer is less than 100 nM; in the assay on HCT116 MTAP+/+, greater than 10000 nM; in the assay with HCT116 MTAP−/−, greater than 10000 nM; in assay [1] it was 100 to 1000 nM.
On to `CCOc1ccc2cn(-c3ccc4nccnc4c3)c(=O)c(-c3ccc(Cl)cc3)c2n1` [Example 244, 8-(4-chlorophenyl)-2-ethoxy-6-(quinoxalin-6-yl)-1,6-naphthyridin-7(6H)-one], for which the IC50 on MAT2A homodimer is less than 100 nM; in the assay with HCT116 MTAP+/+, 100 to 10000 nM; in the assay on HCT116 MTAP−/−, less than 100 nM; in assay [1] it was less than 100 nM.
Regarding `CC(C)n1cc2cc(-n3cc4cnc(NCC(F)(F)F)nc4c(-c4ccc(OC(F)F)cc4)c3=O)ccc2n1` [Example 153, 8-(4-(difluoromethoxy)phenyl)-6-(2-isopropyl-2H-indazol-5-yl)-2-((2,2,2-trifluoroethyl)amino)pyrido[4,3-d]pyrimidin-7(6H)-one], the IC50 on MAT2A homodimer is less than 100 nM; with HCT116 MTAP+/+, greater than 10000 nM; with HCT116 MTAP−/−, less than 100 nM; in assay [1] it was less than 100 nM.
For the molecule `CCOc1ccc2cn(-c3ccc4nn(C)nc4c3)c(=O)c(-c3ccc(Cl)cc3)c2n1` [Example 106-A], the IC50 was less than 100 nM at MAT2A homodimer, greater than 10000 nM in the assay on HCT116 MTAP+/+, 100 to 10000 nM in the assay with HCT116 MTAP−/− and less than 100 nM in assay [1].
Take `CCOc1ccc2cn(-c3ccc4nn(C)cc4c3)c(=O)c(-c3ccc(Br)cc3)c2n1` [Example 109-A]: the IC50 is less than 100 nM at MAT2A homodimer, 100 to 10000 nM in the assay on HCT116 MTAP+/+, less than 100 nM in the assay on HCT116 MTAP−/− and less than 100 nM in assay [1].
Turning to `COc1ccc(-n2cc3cnc(NCC(F)(F)F)nc3c(-c3ccc(-c4nc[nH]n4)cc3)c2=O)cc1` [Example 206, 8-(4-(H-1,2,4-triazol-3-yl)phenyl)-6-(4-methoxyphenyl)-2-(2,2,2-trifluoroethylamino)pyrido[4,3-d]pyrimidin-7(6H)-one], the IC50 on MAT2A homodimer is less than 100 nM; in the assay with HCT116 MTAP+/+ it was 100 to 10000 nM; in the assay on HCT116 MTAP−/− it was 100 to 10000 nM; in assay [1] it was 100 to 1000 nM.
With `CCOc1ccc2cn(-c3ccc4ncccc4c3)c(=O)c(-c3ccc(OC(F)F)cc3)c2n1` [Example 230, 8-(4-(difluoromethoxy)phenyl)-2-ethoxy-6-(quinolin-6-yl)-1,6-naphthyridin-7(6H)-one], the IC50 was less than 100 nM on MAT2A homodimer, 100 to 10000 nM in the assay with HCT116 MTAP+/+, less than 100 nM in the assay with HCT116 MTAP−/− and less than 100 nM in assay [1].
For the molecule `CCOc1ccc2cn(-c3ccc4ncn(C)c4c3)c(=O)c(-c3ccc(OC(F)F)nc3)c2n1` [Example 229, 8-(6-(difluoromethoxy)pyridin-3-yl)-2-ethoxy-6-(1-methyl-1H-benzo[d]imidazol-6-yl)-1,6-naphthyridin-7(6H)-one], the IC50 at MAT2A homodimer was less than 100 nM; in the assay on HCT116 MTAP+/+ it was 100 to 10000 nM; with HCT116 MTAP−/− it was less than 100 nM; in assay [1], less than 100 nM.
As for `COc1ccc(-c2c(=O)n(-c3ccc4c(c3)N(C)CCO4)cc3cnc(NCC(F)(F)F)nc23)cc1` [Example 145, 8-(4-methoxyphenyl)-6-(4-methyl-3,4-dihydro-2H-benzo[b][1,4]oxazin-6-yl)-2-((2,2,2-trifluoroethyl)amino)pyrido[4,3-d]pyrimidin-7(6H)-one], the IC50 at MAT2A homodimer was less than 100 nM; in the assay with HCT116 MTAP+/+ it was greater than 10000 nM; in the assay with HCT116 MTAP−/−, less than 100 nM; in assay [1], less than 100 nM.
Take `Cn1cc2cc(-n3cc4ccc(OC5CC5)nc4c(-c4ccc(Cl)cc4)c3=O)ccc2n1` [Example 210, 8-(4-chlorophenyl)-2-cyclopropoxy-6-(2-methyl-2H-indazol-5-yl)-1,6-naphthyridin-7(6H)-one]: the IC50 on MAT2A homodimer is less than 100 nM; in the assay with HCT116 MTAP+/+, greater than 10000 nM; in the assay on HCT116 MTAP−/− it was less than 100 nM; in assay [1], less than 100 nM.
Consider `O=c1c(-c2ccc(OC(F)F)cc2)c2nc(NCC(F)(F)F)ncc2cn1-c1ccc2ncccc2c1` [Example 159, 8-(4-(difluoromethoxy)phenyl)-6-(quinolin-6-yl)-2-((2,2,2-trifluoroethyl)amino)pyrido[4,3-d]pyrimidin-7(6H)-one], for which the IC50 at MAT2A homodimer was less than 100 nM; in the assay on HCT116 MTAP+/+, 100 to 10000 nM; with HCT116 MTAP−/−, less than 100 nM; in assay [1], less than 100 nM.
In the case of `O=c1c(-c2ccc(OC(F)F)cc2)c2nc(NCC(F)(F)F)ncc2cn1-c1ccc2c(c1)OCCO2` [Example 178, 8-(4-(difluoromethoxy)phenyl)-6-(2,3-dihydrobenzo[b][1,4]dioxin-6-yl)-2-((2,2,2-trifluoroethyl)amino)pyrido[4,3-d]pyrimidin-7(6H)-one], the IC50 at MAT2A homodimer was less than 100 nM; in the assay on HCT116 MTAP+/+, 100 to 10000 nM; in the assay on HCT116 MTAP−/−, 100 to 10000 nM; in assay [1], less than 100 nM.
For `CCOc1ccc2cn(-c3ccc4ncn(C)c4c3)c(=O)c(-c3ccc(C(F)(F)F)nc3)c2n1` [Example 226, 2-ethoxy-6-(1-methyl-1H-benzo[d]imidazol-6-yl)-8-(6-(trifluoromethyl)pyridin-3-yl)-1,6-naphthyridin-7(6H)-one], the IC50 at MAT2A homodimer is less than 100 nM; in the assay with HCT116 MTAP+/+, 100 to 10000 nM; in the assay on HCT116 MTAP−/−, less than 100 nM; in assay [1], less than 100 nM.
For `O=c1c(-c2ccc(OC(F)F)cc2)c2nc(OCC(F)(F)F)ncc2cn1-c1ccc2ncccc2c1` [Example 264, 8-(4-(difluoromethoxy)phenyl)-6-(quinolin-6-yl)-2-(2,2,2-trifluoroethoxy)pyrido[4,3-d]pyrimidin-7(6H)-one], the IC50 at MAT2A homodimer is less than 100 nM; in the assay on HCT116 MTAP+/+, 100 to 10000 nM; with HCT116 MTAP−/−, 100 to 10000 nM; in assay [1], less than 100 nM.
`CCOc1ccc2cn(-c3ccc4ncccc4c3)c(=O)c(-c3ccc(OC(F)F)nc3)c2n1` [Example 232, 8-(6-(difluoromethoxy)pyridin-3-yl)-2-ethoxy-6-(quinolin-6-yl)-1,6-naphthyridin-7(6H)-one]: the IC50 on MAT2A homodimer was less than 100 nM; in the assay with HCT116 MTAP+/+ it was greater than 10000 nM; in the assay with HCT116 MTAP−/− it was less than 100 nM; in assay [1] it was less than 100 nM.
